These results are taken from ChEMBL document CHEMBL3507680, “University of Dundee, Gates Library screen for HepG2 cell viability”.

This data set can be described thus: Human HepG2 cell viability assay in 384 well format. In kind it is toxicity, cell-based. Set-up: dose 125 nL, time 70.5 hour; concentration not given beside the values. To be noted: HepG2 cells, read-out: Inhibition.
Take `CSC(C)C(=O)Nc1ccnn1-c1ccccc1C` (stereo unspecified): the cytotoxicity at 70.5 h is 31.2%.
In the case of `CC(C)C(C)NC(=O)CNc1cc2c(cc1Cl)NC(=O)CO2` (stereo unspecified), the cytotoxicity at 70.5 h was determined as 6.71%.
With `Cc1ccc(CNC(=O)c2c[nH]nc2NC(=O)C2COCCO2)cc1` (stereo unspecified), the cytotoxicity at 70.5 h is -0.405%.
As for `COc1ncc(-c2c(C#N)c(N)nc3c2CCc2[nH]ccc2-3)cn1`, the cytotoxicity at 70.5 h is -4.69%.
As for `O=C(OCc1cc(=O)n2cc(Br)ccc2n1)c1ccc2c(c1)OCO2`, the cytotoxicity at 70.5 h is -5.88%.
Regarding `O=C(N[C@@H]1CN(Cc2ccoc2)C[C@@H]2CCCO[C@@H]21)C1CCC1`, the cytotoxicity at 70.5 h is -11.2%.
With `Cc1noc(C)c1S(=O)(=O)NC(=O)COc1cccc(C(C)C)c1`, the cytotoxicity at 70.5 h was -2.21%.
Consider `O=C(c1cc(F)ccc1F)C1CCN(C(=O)c2ccco2)CC1`, for which the cytotoxicity at 70.5 h was -3.7%.
For the molecule `CC(=O)N1CCC(C(=O)NC2CCc3nccn3C2)CC1` (stereo unspecified), the cytotoxicity at 70.5 h is -97.6%.
Consider `c1ccc(OCc2nnc3n2CCN(Cc2ccco2)C3)nc1`, for which the cytotoxicity at 70.5 h is -2.29%.
As to `CS(=O)(=O)N1Cc2ccccc2CC2(CCN(Cc3ccncc3)C2)C1` (stereo unspecified), the cytotoxicity at 70.5 h was -9.23%.
On to `CC(C)CC(O)C1CCN(Cc2cnc(-c3cccs3)nc2)CC1` (stereo unspecified), for which the cytotoxicity at 70.5 h was determined as 37.1%.
For `COC(=O)COn1c(OC)nc2ccccc2c1=O`, the cytotoxicity at 70.5 h is -11.7%.
For `CCc1nc(NC(=O)NCCc2cscn2)nn1C`, the cytotoxicity at 70.5 h was -4.65%.
Next, `O=C(c1ccoc1)N1CCC2(C1)CN(c1ncccn1)C2`: 0.524%; `Cn1ccc(C(=O)N2CCC(Cc3cnc4[nH]ccc4c3)C2)n1` (stereo unspecified): -7.96%.
Regarding `O=C([C@@H]1CC[C@@H]2[C@@H](CCN2Cc2ccoc2)O1)N1CCCC1`, the cytotoxicity at 70.5 h was -11.4%.
The same measure for `CCN1C(=O)CCC12CCCN(CCc1ccccc1)C2` (stereo unspecified): 34.9%; for `CC(C)C(=O)N1CCN(C(=O)c2cscn2)[C@H]2CS(=O)(=O)C[C@H]21`: -2.25%.
`Cc1occc1C(=O)NCC(=O)NCCOc1ccc2c(c1)CCC2`: the cytotoxicity at 70.5 h was -10.4%.
The same measure for `Cc1cc(N2CCOC(c3ccccn3)C2)nc(N)n1` (stereo unspecified): -3.03%.
Take `O=C(C1CCCCN1Cc1nc(-c2ccco2)no1)N1CCCC1` (stereo unspecified): the cytotoxicity at 70.5 h came to 4.12%.
Consider `Cc1cccnc1CC(C)Nc1nc(N)nc2c1CCNC2` (stereo unspecified), for which the cytotoxicity at 70.5 h is 2.93%.
Consider `CC(C)CC(NC(=O)Nc1ccc(F)c(Cl)c1)C(=O)O` (stereo unspecified), for which the cytotoxicity at 70.5 h was -8.78%.
Consider `O=C(c1cc2ccccc2[nH]c1=O)N1CCC2(CCCNC2)C1` (stereo unspecified), for which the cytotoxicity at 70.5 h is -4.47%.
Next, `NC(=O)CC1CCN(c2ncnc3cccc(F)c23)CC1`: -3.61%.
`COCC(=O)NC(C)c1cccc(Br)c1` (stereo unspecified): the cytotoxicity at 70.5 h was -2.66%.
For `Cc1ncc(COc2ccc(N(C)S(C)(=O)=O)cc2)s1`, the cytotoxicity at 70.5 h came to 3.82%.
Regarding `Cc1nnc(NC(=O)CN2CCCC2c2noc(C3CC3)n2)s1` (stereo unspecified), the cytotoxicity at 70.5 h stood at 21.8%.
Consider `COCC(=O)N1CCCC(c2nc(N)ncc2-c2cccc(F)c2)C1` (stereo unspecified), for which the cytotoxicity at 70.5 h amounted to 2.19%.
Consider `Cc1ccccc1-n1c(O)cc(C)c(C#N)c1=O`, for which the cytotoxicity at 70.5 h was -1.83%.
On to `CC(c1ccc(-n2cncn2)cc1)N(C)Cc1ccccn1` (stereo unspecified), for which the cytotoxicity at 70.5 h was -7.98%.
As to `Cc1noc(C)c1CN1C[C@@H](OCc2ccccn2)[C@H]2OCCC[C@H]21`, the cytotoxicity at 70.5 h is -16.3%.
Next, `Cc1ccsc1[C@@H]1CCN(C(=O)Cc2ccc(O)cc2)C[C@H]1O`: -2.32%; `CCc1c(C)sc2nc3n(CC(N)=O)nc(SC)n3c(=O)c12`: 5.38%.
The same measure for `CCCS(=O)(=O)N1CCCC(c2nc(-c3ccccc3)c[nH]2)C1` (stereo unspecified): -2.79%.
For the molecule `CN(CCc1ccccn1)C(=O)C(O)c1ccc(Br)cc1` (stereo unspecified), the cytotoxicity at 70.5 h was -4.38%.
In the case of `Cc1nc2ccccc2n1CCNCc1cccc(C#N)c1`, the cytotoxicity at 70.5 h was -14.8%.
As to `O=C(CC1CCCC1)NCCn1ccc(-c2ccncc2)n1`, the cytotoxicity at 70.5 h was 9.19%.
Take `Cc1ncc(C(=O)N2CCCC(n3cccn3)C2)s1` (stereo unspecified): the cytotoxicity at 70.5 h is -11.8%.
The same measure for `Cc1cc(C)nc(C2CCN(C(=O)c3c(C)noc3C)C2)n1` (stereo unspecified): -3.76%; for `Cc1nccn1-c1cc(CNC(=O)C2CCCO2)ccn1` (stereo unspecified): -7.47%.
In the case of `CCn1c(CC2CCN(S(=O)(=O)Cc3ccccc3)CC2)nn(C)c1=O`, the cytotoxicity at 70.5 h is -9.61%.
Consider `Cn1ccnc1-c1cccc(NC(=O)NCCN2CCOCC2)c1`, for which the cytotoxicity at 70.5 h is -3.53%.
`CCSc1cc(C(=O)NCc2ccccc2O)ccn1`: the cytotoxicity at 70.5 h was -4.36%.
Regarding `Cc1nn(C)c(C)c1C1CCCN1Cc1nc(-c2cccs2)no1` (stereo unspecified), the cytotoxicity at 70.5 h is -2%.
Consider `CCCN1CC2(CCN(C)CC2)CC1C(=O)NCCn1nc(C)nc1C` (stereo unspecified), for which the cytotoxicity at 70.5 h amounted to 6.07%.
The same measure for `CN(Cc1cc[nH]n1)C(=O)c1cccc(CCC(C)(C)O)c1`: -3.42%.
Next, `Cc1nc(C)c(C(=O)NCCNC(=O)Cc2ccc(F)cc2)s1`: 10.7%.
Turning to `CC(=O)Nc1nc(C(=O)NCc2ccc(N3CCOCC3)nc2)cs1`, the cytotoxicity at 70.5 h amounted to 14.9%.
Consider `O=C(Nc1ccccc1)N1C(CN2CCOCC2)[C@]2(O)CC[C@H]1CC2` (stereo partly specified), for which the cytotoxicity at 70.5 h is -2.88%.
In the case of `Cc1cccc(C(C)NCC2CCS(=O)(=O)CC2)c1` (stereo unspecified), the cytotoxicity at 70.5 h is -3.65%.
Next, `CN1CCCC(c2ccc(N3CCOCC3)cn2)C1` (stereo unspecified): -3.9%; `CN(C)C(CNC(=O)c1ccc(-n2cnnn2)cc1)c1ccccc1Cl` (stereo unspecified): 5.44%; `COc1ccc(CNC(=O)CCSCc2csc(C)n2)cn1`: -4.07%.
`Cn1cc(-c2ccnc(NCC3CCCCO3)n2)cn1` (stereo unspecified): the cytotoxicity at 70.5 h was found to be 9.61%.
Regarding `CCOC[C@@]12CCC[C@@H]1CN(C(=O)COc1ccccc1OC)C2`, the cytotoxicity at 70.5 h was -8.07%.
The same measure for `Nc1nc2c(s1)C(c1c(F)cccc1Cl)CC(=O)N2` (stereo unspecified): 1.77%; for `Cc1n[nH]c(=O)c2c(NC(=O)CN3CCC(O)CC3)oc(C)c12`: 7.13%; for `COCCN(C)C[C@H]1C[C@H](CO)CN(C(=O)c2ccn(C)c(=O)c2)C1`: -9.68%.
Next, `CCCc1nc(C(=O)NCc2cccnc2-n2cncn2)cs1`: 7.67%; `O=C(c1ccsc1)N1C[C@@H](CN2CCCC2)[C@@H](CO)C1`: 13.3%; `Cc1cc(-c2cnc(N3CCC(O)CC3)nc2C(C)C)on1`: 20.4%.
As for `CCN(CC)c1ncc(CNC2CCc3nc(C)nn3C2)s1` (stereo unspecified), the cytotoxicity at 70.5 h is 4.79%.
Next, `CC(O)c1cn(C2CCN(C(=O)C3(C)CCCCC3)CC2)nn1` (stereo unspecified): 14.9%; `Cc1ccc(N2CCC3(CCN(C(=O)c4ccsc4)CC3)CC2)nn1`: -7.09%.
In the case of `COC(=O)C(C)(C)NC(=O)C1CC(=O)N(CC(F)(F)F)C1` (stereo unspecified), the cytotoxicity at 70.5 h worked out at 0.904%.
On to `O=S(=O)(N1CCCCC1)N1CCc2nc(C3CCNCC3)ncc2C1`, for which the cytotoxicity at 70.5 h is -13.5%.
Next, `Cc1nc([C@@H]2C[C@H]3CN(Cc4ccc5c(c4)OCO5)C[C@H]3O2)no1`: -10.1%; `CC(=O)N1CCN(c2ncnc3cc4c(cc23)OCCO4)CC1`: -6.91%; `Cc1cnn(CC2CCCN2Cc2nnc(-c3ccccc3)o2)c1` (stereo unspecified): -4.64%.
